Source: article PMC5078989, “Targeted inhibition of the COP9 signalosome for treatment of cancer” (Nature Communications, 2016)

Test system: panel of cancer cell lines
Assay: Cell viability (CellTiter-Glo) dose-response across cancer cell line panel;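 for EC50: after 72 h compound incubation with CellTiter-Glo ATP readout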
Format: cell-based, human
Conditions: for EC50: Homo sapiens
Source text: Next, we explored the effect of CSN5 inhibition on the viability of cancer cells. To obtain a comprehensive picture, we generated dose–response curves with a CSN5 inhibitor across more than 500 cancer cell lines in a previously described standardized setting[47] (Supplementary Data 1).
A standardized CellTiter-Glo Assay (Promega #G7570) based on the quantification of ATP was applied according to the manufacturer's protocol to measure the amount of viable cells in culture. In brief, cells were seeded into 384-well plates at optimal density for each cell line. After 4 h, compounds were added at different concentrations in growth medium and incubated for another 72 h in a humidifying chamber at 37 °C and 5% CO2. […] EC50 values were calculated from the plot of percentage of inhibition versus inhibitor concentration using the nonlinear regression analysis software Origin 7.5SR6 (OriginLab Corp.).

SMILES: COCc1ccccc1NCc1ccc([C@@H]2[C@H](O)CCCc3cncn32)c(-c2ccccc2Cl)c1 [CSN5i-2e, (5R,6R)-5-(2′-chloro-5-(((2-(methoxymethyl)phenyl)amino)methyl)-[1,1′-biphenyl]-2-yl)-6,7,8,9-tetrahydro-5H-imidazo[1,5-a]azepin-6-ol]
- AMAX (59M cells): -44.1889
- AMAX (92.1 cells): -96.1867
- AMAX (A101D cells): -85.3496
- AMAX (A2780 cells): -96.2609
- AMAX (A-704 cells): -60.7987
- AMAX (ABC-1 cells): -95.9302
- AMAX (AM-38 cells): -94.7284
- AMAX (AsPC-1 cells): -87.4169
- AMAX (BFTC-909 cells): -56.5002
- AMAX (BICR 6 cells): -77.6622
- AMAX (BICR 16 cells): -89.8558
- AMAX (Calu-6 cells): -67.9674
- AMAX (DU4475 cells): -97.6355
- AMAX (EFM-192A cells): -84.5576
- AMAX (FaDu cells): -85.1498
- AMAX (GP2d cells): -5.479
- AMAX (HARA cells): -90.816
- AMAX (HCC1143 cells): -51.336
- AMAX (HCC1187 cells): -85.4618
- AMAX (HD-MY-Z cells): -75.4546
- AMAX (HEC-151 cells): -93.7534
- AMAX (HEL cells): -96.2302
- AMAX (HL-60 cells): -99.3648
- AMAX (HLC-1 cells): -73.0832
- AMAX (HLE cells): -72.0117
- AMAX (HLF cells): -45.3286
- AMAX (HSC-4 cells): -74.8911
- AMAX (HT-29 cells): -73.0471
- AMAX (HUP-T4 cells): -52.1939
- AMAX (Hep3B cells): -93.3733
- EC50 (59M, 59M cells): > 30 µM
- EC50 (92.1 cells): 14.4 µM
- EC50 (639-V, 639-V cells): 23 µM
- EC50 (697 cells): 9.5 µM
- EC50 (769-P, 769-P cells): 12.8 µM
- EC50 (786-0, 786-O cells): 6.26 µM
- EC50 (1321-N1, 1321N1 cells): 12.9 µM
- EC50 (8505C, 8505C cells): 8.9 µM
- EC50 (A4/Fuk cells): 14.5 µM
- EC50 (A101D, A101D cells): 9.82 µM
- EC50 (A204, A-204 cells): 15.2 µM
- EC50 (A498, A-498 cells): 13.7 µM
- EC50 (A549, A549 cells): 10.6 µM
- EC50 (A673, A-673 cells): 14.4 µM
- EC50 (A2058, A2058 cells): 23.5 µM
- EC50 (A2780, A2780 cells): 8.53 µM
- EC50 (A-375, A-375 cells): 10.4 µM
- EC50 (ABC-1, ABC-1 cells): 3.6 µM
- EC50 (ACC-MESO-1, ACC-MESO-1 cells): > 30 µM
- EC50 (AM-38, AM-38 cells): 11.9 µM
- EC50 (AML-193 cells): 18.9 µM
- EC50 (AN3-CA, AN3 CA cells): > 30 µM
- EC50 (ASPC1, AsPC-1 cells): 13.4 µM
- EC50 (BC-3C cells): 8.14 µM
- EC50 (BEN cells): 10.5 µM
- EC50 (BFTC-909, BFTC-909 cells): 13.2 µM
- EC50 (BHY cells): 12.8 µM
- EC50 (BICR 6 cells): 9.82 µM
- EC50 (BICR 16 cells): 11.1 µM
- EC50 (BICR 18 cells): > 30 µM
- EC50 (BICR 31 cells): 19.6 µM
- EC50 (BT-16, BT-16 cells): 18.3 µM
- EC50 (BT-474, BT-474 cells): 11.4 µM
- EC50 (BT-549, BT-549 cells): 19.4 µM
- EC50 (C3A, C3A cells): 9.64 µM
- EC50 (CAKI-2, Caki-2 cells): 11.3 µM
- EC50 (CAL-12T, CAL-12T cells): 8.27 µM
- EC50 (CAL-27, CAL 27 cells): 12 µM
- EC50 (CAL-29 cells): 11.8 µM
- EC50 (CAL-85-1, CAL-85-1 cells): 18.6 µM
- EC50 (CAL-120, CAL-120 cells): 9.09 µM
- EC50 (CAL-148, CAL-148 cells): 9.65 µM
- EC50 (CAMA-1, CAMA-1 cells): 10.9 µM
- EC50 (CAPAN-1, Capan-1 cells): 7.41 µM
- EC50 (CCRF-HSB-2, CCRF-HSB-2 cells): 4.36 µM
- EC50 (CEM/C1, CEMC1 cells): 6.88 µM
- EC50 (CFPAC-1, CFPAC-1 cells): 11.4 µM
- EC50 (CL-14 cells): 11.1 µM
- EC50 (CL-34 cells): 11.1 µM
- EC50 (CMK, CMK cells): 8.18 µM
- EC50 (CMK-86, CMK-86 cells): 7.36 µM
- EC50 (COLO 201, COLO 201 cells): 12.6 µM
- EC50 (COLO 205, COLO 205 cells): 11.6 µM
- EC50 (COLO 320, COLO-320 cells): 8.29 µM
- EC50 (COLO 699, COLO-699 cells): 10.1 µM
- EC50 (COLO 704, COLO-704 cells): 12.6 µM
- EC50 (COLO-678, COLO-678 cells): 16.6 µM
- EC50 (COLO-679, COLO-679 cells): 13.6 µM
- EC50 (COLO-741, COLO 741 cells): 27.1 µM
- EC50 (COLO-829, COLO 829 cells): 11.6 µM
- EC50 (COR-L23, COR-L23 cells): 8.42 µM
- EC50 (COR-L105, COR-L105 cells): 13.1 µM
- EC50 (COV362, COV362 cells): 10.6 µM
- EC50 (CW-2, CW-2 cells): 9.62 µM
- EC50 (Calu-6, Calu-6 cells): 9.62 µM
- EC50 (ChaGo-K-1, ChaGo-K-1 cells): 12.7 µM
- EC50 (Ci-1, CI-1 cells): 2.87 µM
- EC50 (DB, DB cells): 8.52 µM
- EC50 (DLD-1, DLD-1 cells): > 30 µM
- EC50 (DMS-53, DMS 53 cells): 17.9 µM
- EC50 (DMS-273, DMS 273 cells): 9.95 µM
- EC50 (DND41, DND-41 cells): 12.6 µM
- EC50 (DU-4475, DU4475 cells): 14.8 µM
- EC50 (EBC-1, EBC-1 cells): 17.8 µM
- EC50 (EFM-19, EFM-19 cells): 13.1 µM
- EC50 (EFM-192A, EFM-192A cells): 6.13 µM
- EC50 (EOL1, EOL-1 cells): 3.43 µM
- EC50 (FaDu, FaDu cells): 10.2 µM
- EC50 (Fu97, FU97 cells): 8.56 µM
- EC50 (G-401, G-401 cells): 7.91 µM
- EC50 (G-402, G-402 cells): 11.3 µM
- EC50 (GAMG, GAMG cells): > 30 µM
- EC50 (GDM-1, GDM-1 cells): 9.32 µM
- EC50 (GI-1, GI-1 cells): 15.6 µM
- EC50 (GP2d, GP2d cells): > 30 µM
- EC50 (HARA cells): 14.2 µM
- EC50 (HCC15, HCC-15 cells): 23 µM
- EC50 (HCC44, HCC-44 cells): 5.76 µM
- EC50 (HCC70, HCC70 cells): 13.3 µM
- EC50 (HCC95, HCC-95 cells): 15 µM
- EC50 (HCC827, HCC827 cells): 15.5 µM
- EC50 (HCC1143, HCC1143 cells): 11.1 µM
- EC50 (HCC1187, HCC1187 cells): 10.7 µM
- EC50 (HCC1500, HCC1500 cells): 11.7 µM
- EC50 (HCC1588, HCC-1588 cells): 7.61 µM
- EC50 (HCC1806, HCC1806 cells): 22.7 µM
- EC50 (HCC1954, HCC1954 cells): 15.3 µM
- EC50 (HCC-56 cells): 18.5 µM
